Measured values as given in patent US4303660A, “Pyrazolo[1,5-c]quinazoline derivatives and analgesic compositions containing them” (priority 1979, dated 1981).
Read-outs that look alike come from different tables or passages of the source.

Legend:
gastric acid secretion = type: in vivo, rats; conditions: for Inhibition of gastric acid secretion, percentage: rats
Source text: The influence of the compounds of the invention on the gastric acid secretion was studied on rats weighing 170 to 260 g according to Shay [Gastroenterology, 5, 43 (1945)].

in vivo = conditions: printed under the reference substance in Table III
Acute toxicity = conditions: mouse, in vivo; oral; mice weighing 18 to 22 g
Procedure: The acute toxicity of the pyrazolo[1,5-c]quinazoline derivatives of the general formula I were determined on mice weighing 18 to 22 g. The compounds were administered orally.

acetic acid writhing = assay: Acetic acid writhing test (analgesic activity); conditions: for ED50: Mus musculus, read-out: ED50 p.o.
Procedure: The analgesic activity was studied by means of the acetic acid writhing test on mice. After the intraperitoneal administration of 0.4 ml of 0.5 percent acetic acid, the writhing responses were counted between the 5 and 10 minutes. The writhing number was calculated as the percentage of the control value. The compounds tested were orally administered to the animals 1 hour prior to the treatment with acetic acid. […] Paracetamole [p-hydroxyacetanilide] and phenylbutazon [4-butyl-1,2-diphenylpyrazolidine-3,5-dione] were used as reference substance.

small intestine = assay: Antiperistaltic effect (carbon suspension, small intestine); type: in vivo, mice; conditions: for ED50: Mus musculus, read-out: ED50 p.o.
Procedure: The antiperistaltic effect of the compounds of the invention was examined on groups of mice consisting of 10 animals. Each dosis of the compound to be tested was administered to one group, orally, 60 minutes prior to the administration of a 10 percent carbon suspension. 20 minutes after the administration of the carbon suspension, the animals were sacrificed and the length of the entire small intestine as well as that of the small intestine filled with carbon were determined. The reference substance used was papaverine [1-(3,4-dimethoxybenzyl)-6,7-dimethoxyisoquinoline].

[1] = antiperistaltic effect, oral, 60 minutes prior to 10 percent carbon suspension, mice

## CCCN(CCC)C(=O)C(CCC(=O)O)NC(=O)c1ccccc1 (racemic) [proglumide, D,L-4-benzamido-N,N-dipropylglutaramic acid, reference compound]
Gastric acid secretion; 200 mg/kg p.o.
  Inhibition of gastric acid secretion, percentage: about 20 percentage
Gastric acid secretion; gastric acid secretion, p.o.
  Therapeutic index: 11.4
In vivo
  LD50: 2780 mg/kg

## O=[N+]([O-])c1cnn2cnc3ccccc3c12 [Example 1, 1-Nitropyrazolo[1,5-c]quinazoline]
Acute toxicity
  LD50: 2000 mg/kg
Acetic acid writhing; po
  ED50: 50 mg/kg
Acetic acid writhing; mouse, in vivo, po
  Therapeutic index: 40
Small intestine; [1]
  ED50: 18 mg/kg
Small intestine; mouse, in vivo, po
  Therapeutic index: 111

## Cc1nc2ccccc2c2c([N+](=O)[O-])cnn12 [Example 3, 1-Nitro-5-methylpyrazolo[1,5-c]quinazoline]
Acute toxicity
  LD50: 2000 mg/kg
Small intestine; [1]
  ED50: 400 mg/kg
Small intestine; mouse, in vivo, po
  Therapeutic index: 5

## CC(=O)Nc1cnn2cnc3ccccc3c12 [Example 5, 1-Acetaminopyrazolo[1,5-c]quinazoline]
Gastric acid secretion; 70 mg/kg p.o.
  Inhibition of gastric acid secretion, percentage: about 50 percentage
Gastric acid secretion; 100 mg/kg p.o.
  Inhibition of gastric acid secretion, percentage: 93 percentage
Gastric acid secretion; rat, in vivo, po
  Therapeutic index: 28.6
Acute toxicity
  LD50: 2000 mg/kg
Small intestine; [1]
  ED50: 400 mg/kg
Small intestine; mouse, in vivo, po
  Therapeutic index: 5

## CC1(C)Nc2ccccc2-c2c([N+](=O)[O-])cnn21 [Example 9, 1-Nitro-5,5-dimethyl-5,6-dihydropyrazolo[1,5-c]quinazoline]
Acute toxicity
  LD50: 2000 mg/kg
Small intestine; [1]
  ED50: 400 mg/kg
Small intestine; mouse, in vivo, po
  Therapeutic index: 5

## CC(=O)N1c2ccccc2-c2c([N+](=O)[O-])cnn2C1C (stereo not drawn) [Example 27, 1-Nitro-5-methyl-6-acetyl-5,6-dihydropyrazolo[1,5-c]quinazoline]
Gastric acid secretion; 50 mg/kg p.o.
  Inhibition of gastric acid secretion, percentage: 33 percentage
Gastric acid secretion; 62 mg/kg p.o.
  Inhibition of gastric acid secretion, percentage: about 50 percentage
Gastric acid secretion; 100 mg/kg p.o.
  Inhibition of gastric acid secretion, percentage: 82 percentage
Gastric acid secretion; rat, in vivo, po
  Therapeutic index: 32.3
Acute toxicity
  LD50: 2000 mg/kg
Small intestine; [1]
  ED50: 50 mg/kg
Small intestine; mouse, in vivo, po
  Therapeutic index: 40

## CC(=O)N1c2ccccc2-c2c([N+](=O)[O-])cnn2C1(C)C [Example 31, 1-Nitro-5,5-dimethyl-6-acetyl-5,6-dihydropyrazolo[1,5-c]quinazoline]
Acute toxicity
  LD50: 2000 mg/kg
Small intestine; [1]
  ED50: 50 mg/kg
Small intestine; mouse, in vivo, po
  Therapeutic index: 40

## CC(=O)Nc1cnn2c1-c1ccccc1NC2(C)C [Example 33, 1-Acetamino-5,5-dimethyl-5,6-dihydropyrazolo[1,5-c]quinazoline]
Acute toxicity
  LD50: 2000 mg/kg
Small intestine; [1]
  ED50: 45 mg/kg
Small intestine; mouse, in vivo, po
  Therapeutic index: 45

## CC(=O)Nc1cnn2c1-c1ccccc1N(C(C)=O)C2(C)C [Example 34]
Acute toxicity
  LD50: 2000 mg/kg
Acetic acid writhing; po
  ED50: 25 mg/kg
Acetic acid writhing; analgesic activity test, p.o.
  Therapeutic index: 80
Small intestine; po
  ED50: 60 mg/kg
Small intestine; antiperistaltic effect, p.o.
  Therapeutic index: 33

## CC(=O)Nc1cnn2c1-c1ccccc1N(C(C)=O)C2C (stereo not drawn) [Example 35, 1-Acetamino-5-methyl-6-acetyl-5,6-dihydropyrazolo[1,5-c]quinazoline]
Acute toxicity
  LD50: 2000 mg/kg
Small intestine; [1]
  ED50: 145 mg/kg
Small intestine; mouse, in vivo, po
  Therapeutic index: 14

## CC(=O)Nc1cnn2c(C)nc3ccccc3c12 [Example 36, 1-Acetamino-5-methylpyrazolo[1,5-c]quinazoline]
Gastric acid secretion; 50 mg/kg p.o.
  Inhibition of gastric acid secretion, percentage: 30 percentage
Gastric acid secretion; 65 mg/kg p.o.
  Inhibition of gastric acid secretion, percentage: about 50 percentage
Gastric acid secretion; 100 mg/kg p.o.
  Inhibition of gastric acid secretion, percentage: 73 percentage
Gastric acid secretion; rat, in vivo, po
  Therapeutic index: 27.7
Acute toxicity
  LD50: 1800 mg/kg
Small intestine; [1]
  ED50: 360 mg/kg
Small intestine; mouse, in vivo, po
  Therapeutic index: 5

## CN/C(=N/CCSCc1nc[nH]c1C)NC#N [cimetidine, 1-methyl-3-[2-(5-methylimidazol-4-yl-methylthio)ethyl]guanidine-2-carbonitrile, reference compound]
Gastric acid secretion; 50 mg/kg p.o.
  Inhibition of gastric acid secretion, percentage: 45 percentage
Gastric acid secretion; rat, in vivo, po
  Therapeutic index: 9.4
In vivo
  LD50: 470 mg/kg

## COc1ccc(Cc2nccc3cc(OC)c(OC)cc23)cc1OC [papaverine, 1-(3,4-dimethoxybenzyl)-6,7-dimethoxyisoquinoline, reference compound]
Small intestine; po
  ED50: 180 mg/kg
Small intestine; antiperistaltic effect, p.o.
  Therapeutic index: 3.4

## CC(=O)Nc1ccc(O)cc1 [paracetamole, p-hydroxyacetanilide, reference compound]
Acetic acid writhing; po
  ED50: 180 mg/kg
Acetic acid writhing; analgesic activity test, p.o.
  Therapeutic index: 2,8

## CCCCC1C(=O)N(c2ccccc2)N(c2ccccc2)C1=O [phenylbutazon, 4-butyl-1,2-diphenylpyrazolidine-3,5-dione, reference compound]
Acetic acid writhing; po
  ED50: 60 mg/kg
Acetic acid writhing; mouse, in vivo, po
  Therapeutic index: 16,6
